Among the data in the supplement of paper PMC4862054 are drug sensitivity score and normalised viability values, retold here.

Common to all, as to details: incubation time: 72 h
The subject of one test is MDA-MB-453. In words: drug sensitivity score (DSS), CellTiter-Blue viability (DSS (AUC-based score)); higher = stronger viability inhibition; extreme values may be limits of the assay. How it is done:
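DSRT with the CellTiter-Blue (resazurin reduction) viability readout, fluorescence 560/590 nm, 72 h incubation. Plates were normalised to DMSO and benzethonium chloride controls. DSS is computed from the area under the fitted dose-response curve (5 or 9 concentrations).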

The subject of the next test is BT-549. The test can be described thus: normalised viability (% of control), CellTiter-Blue; higher = more viable cells (about 100 = DMSO control). The method, boiled down:
(§1)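 Seeded at 20 µl suspension per well onto compound-loaded 384-well plates, breast cancer cell lines were incubated 72 h. CellTiter-Blue fluorescence at 560/590 nm was then read, with each plate normalised to vehicle (100) and a positive kill control (0). Normalised viability is reported at a single listed concentration of the series.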

For another test, the system named is CAL-120. The test is described as above. Summed up: as §1
The test system of the next test is HDQ-P1. The description is as above. The method, boiled down:
as §1

In another test the test system is HCC1937. Described as above. The method, boiled down: as §1
Another test concerns HCC1143. Described as above. The method, boiled down:
as §1

A further test has as its system MDA-MB-436. Described as above. Summed up:
as §1

In the test on MDA-MB-453, `CN(N=O)C(=O)N[C@@H](C=O)[C@@H](O)[C@H](O)[C@H](O)CO` [Streptozocin] gave a drug sensitivity score of 0. Also, the normalised viability was found to be 93% in the test with BT-549 (10 nM); 103% in the test on BT-549 (1000 nM); 83.7% with BT-549 (10000 nM); 106% with CAL-120 (10 nM); 101% with CAL-120 (1000 nM); 113% with CAL-120 (10000 nM). Also, the normalised viability in the test with HDQ-P1 (3 nM) worked out at 103%; with HDQ-P1 (30 nM), 109%; in the test with HDQ-P1 (100 nM) it was 111%; in the test on HCC1937 (10 nM), 87.4%; in the test on HCC1937 (1000 nM), 63.3%; with HCC1937 (10000 nM), 75.9%. In addition, the normalised viability was 87.5% with HCC1143 (10 nM); 97.4% in the test with HCC1143 (1000 nM); 92.5% in the test with HCC1143 (10000 nM); 110% in the test with MDA-MB-436 (10 nM); 88.1% in the test with MDA-MB-436 (1000 nM); 90.6% in the test with MDA-MB-436 (10000 nM).

In turn, `O=C1CCC(N2C(=O)c3ccccc3C2=O)C(=O)N1` (centres undefined) [Thalidomide] returned a drug sensitivity score with MDA-MB-453 of 0. The normalised viability in the test on BT-549 (10 nM) was 76.7%; in the test on BT-549 (1000 nM), 91.5%; in the test with BT-549 (10000 nM), 81.7%; in the test with CAL-120 (10 nM), 111%; with CAL-120 (1000 nM), 106%; with CAL-120 (10000 nM), 96.8%. The normalised viability in the test on HDQ-P1 (3 nM) was found to be 107%; in the test with HDQ-P1 (30 nM), 101%; in the test with HDQ-P1 (100 nM), 103%; in the test with HCC1937 (10 nM), 85.8%; with HCC1937 (1000 nM) it was 73.4%; in the test on HCC1937 (10000 nM), 77.9%. The normalised viability came out at 109% in the test with HCC1143 (10 nM); 102% in the test with HCC1143 (1000 nM); 107% with HCC1143 (10000 nM); 106% with MDA-MB-436 (10 nM); 87% in the test on MDA-MB-436 (1000 nM); 96.8% in the test with MDA-MB-436 (10000 nM).

Consider `CN[C@@H]1C[C@H]2O[C@@](C)([C@@H]1OC)n1c3ccccc3c3c4c(c5c6ccccc6n2c5c31)C(=O)N[C@H]4O` [UCN-01], for which the drug sensitivity score with MDA-MB-453 was 18.2. Further, the normalised viability amounted to 91.4% in the test on BT-549 (10 nM); 11.8% with BT-549 (1000 nM); 0.77% in the test with BT-549 (10000 nM); 72.8% with CAL-120 (10 nM); 17.7% with CAL-120 (1000 nM); 9.93% with CAL-120 (10000 nM). Moreover, the normalised viability in the test with HDQ-P1 (3 nM) turned out to be 82.2%; in the test on HDQ-P1 (30 nM), 66.8%; in the test with HDQ-P1 (100 nM) it was 39.6%; in the test with HCC1937 (10 nM), 71.7%; in the test on HCC1937 (1000 nM) it was 25.6%; with HCC1937 (10000 nM), 7.84%. For the same compound, the normalised viability was found to be 77.7% in the test with HCC1143 (10 nM); 20.6% in the test on HCC1143 (1000 nM); 20.4% in the test with HCC1143 (10000 nM); 110% with MDA-MB-436 (10 nM); 47.8% in the test with MDA-MB-436 (1000 nM); 12.8% in the test on MDA-MB-436 (10000 nM).

`Clc1ccc(Nc2nnc(Cc3ccncc3)c3ccccc23)cc1` [Vatalanib] registered a drug sensitivity score in the test on MDA-MB-453 of 0. The normalised viability worked out at 87.3% in the test on BT-549 (10 nM); 88.2% in the test on BT-549 (1000 nM); 85.9% in the test on BT-549 (10000 nM); 82.2% with CAL-120 (10 nM); 89.7% with CAL-120 (1000 nM); 82.6% with CAL-120 (10000 nM). Moreover, the normalised viability worked out at 105% in the test on HDQ-P1 (3 nM); 102% in the test on HDQ-P1 (30 nM); 108% in the test on HDQ-P1 (100 nM); 75% with HCC1937 (10 nM); 95.7% in the test with HCC1937 (1000 nM); 91.9% with HCC1937 (10000 nM). The normalised viability with HCC1143 (10 nM) came to 80.5%; in the test on HCC1143 (1000 nM), 87.2%; with HCC1143 (10000 nM), 79.6%; with MDA-MB-436 (10 nM) it was 106%; with MDA-MB-436 (1000 nM) it was 97.5%; in the test on MDA-MB-436 (10000 nM), 85.2%.

As to `CCC1=C[C@@H]2CN(C1)Cc1c([nH]c3ccccc13)[C@@](C(=O)OC)(c1cc3c(cc1OC)N(C)[C@H]1[C@@](O)(C(=O)OC)[C@H](OC(C)=O)[C@]4(CC)C=CCN5CC[C@]31[C@@H]54)C2` [Vinorelbine], the drug sensitivity score in the test on MDA-MB-453 turned out to be 26.1. Besides, the normalised viability with BT-549 (10 nM) worked out at 94.9%; in the test on BT-549 (1000 nM), 15.8%; in the test with BT-549 (10000 nM), 11.4%; in the test with CAL-120 (10 nM), 84.1%; in the test on CAL-120 (1000 nM) it was 24.3%; in the test on CAL-120 (10000 nM) it was 25.4%. The normalised viability stood at 95.3% in the test on HDQ-P1 (3 nM); 81.2% with HDQ-P1 (30 nM); 65% with HDQ-P1 (100 nM); 83.2% with HCC1937 (10 nM); 14.7% in the test with HCC1937 (1000 nM); 19.5% in the test on HCC1937 (10000 nM). For the same compound, the normalised viability in the test on HCC1143 (10 nM) worked out at 93.9%; with HCC1143 (1000 nM) it was 45.8%; in the test on HCC1143 (10000 nM), 38.7%; with MDA-MB-436 (10 nM), 109%; with MDA-MB-436 (1000 nM), 41.4%; in the test on MDA-MB-436 (10000 nM) it was 34.6%.

The compound `Oc1nc(-c2ccc(C(F)(F)F)cc2)nc2c1CSCC2` [XAV-939] registered a drug sensitivity score in the test on MDA-MB-453 of 0. The normalised viability with BT-549 (10 nM) worked out at 91.3%; with BT-549 (1000 nM), 94.5%; with BT-549 (10000 nM) it was 101%; in the test on CAL-120 (10 nM) it was 90.6%; in the test on CAL-120 (1000 nM), 92.8%; in the test with CAL-120 (10000 nM), 105%. Moreover, the normalised viability stood at 113% with HDQ-P1 (3 nM); 104% with HDQ-P1 (30 nM); 98.6% with HDQ-P1 (100 nM); 113% in the test with HCC1937 (10 nM); 89.3% in the test with HCC1937 (1000 nM); 122% in the test with HCC1937 (10000 nM). Also, the normalised viability in the test with HCC1143 (10 nM) came to 80.4%; in the test on HCC1143 (1000 nM) it was 81.9%; in the test with HCC1143 (10000 nM) it was 80.9%; in the test with MDA-MB-436 (10 nM) it was 122%; in the test on MDA-MB-436 (1000 nM), 116%; in the test with MDA-MB-436 (10000 nM), 113%.
